Data from article PMC8852625, “A Computer-Aided Approach for the Discovery of D-Peptides as Inhibitors of SARS-CoV-2 Main Protease” (Frontiers in Molecular Biosciences, 2022).
Read-outs that look alike come from different tables or passages of the source.

Key:
3CL^pro = conditions: in vivo; cited from earlier work

Question: With `CC(C)(C)[C@H](NC(=O)C(F)(F)F)C(=O)N1C[C@H]2[C@@H]([C@H]1C(=O)N[C@H](C#N)C[C@@H]1CCNC1=O)C2(C)C` [PF-07321332] as the compound, how does the “phase I clinical trial result” value (3CL^pro) read?
Answer: promising results

Question: What does the source list for ACE-HIE-ALA-PRO-TRP-NME [4P3]?
Answer: inhibition (loss) of 3CL^pro activity (SARS-CoV-2 3CL^pro; pH 7.2): more than 80%; inhibition of 3CL^pro (in words) (SARS-CoV-2 3CL^pro; pH 7.2): most potent; residual activity of 3CL^pro (SARS-CoV-2 3CL^pro; pH 7.2): below 20%

Question: What does the source list for ACE-HIE-HIE-PRO-TYR-NME [4P4]?
Answer: inhibition (loss) of 3CL^pro activity (SARS-CoV-2 3CL^pro; 20 μM peptide, 500 nM 3CL^pro, 30 min pre-incubation, 50 µM DABCYL-KTSAVLQ↓SGFRKME-EDANS, 30 min, 37°C, 20 mM Tris pH 7.2, 200 mM NaCl, 1 mM EDTA, 1 mM TCEP, fluorescence 360/460 nm, mean, n = 3): more than 80%; residual activity of 3CL^pro (SARS-CoV-2 3CL^pro; 20 μM peptide, 500 nM 3CL^pro, 30 min pre-incubation, 50 µM fluorogenic substrate, 37°C, pH 7.2, mean, n = 3): below 20%
